Measured values reported in PubChem BioAssay (NCI).
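Step 1: Grow cells in 96-well plates. Step 2: Expose to compound for 48 hours at 5 concentrations. Step 3: Interpolate endpoints linearly; if unreached, use highest concentration. At the TGI there is no net growth.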 Where a SMILES comes first, the peptide text is derived from it. The star is where a group is joined. OBn = c1ccc(CO*)cc1

How the values were obtained:
Experiment in all cases: inhibition of tumour cell growth, NCI panel, 48 h
[1] = system: 786-0 renal
[2] = system: A549 NSCLC
[3] = system: ACHN renal
[4] = system: BT-549 breast
[5] = system: CAKI-1 renal
[6] = system: CCRF-CEM leukemia
[7] = system: COLO 205 colon
[8] = system: DU-145 prostate
[9] = system: EKVX NSCLC
[10] = system: HCC-2998 colon
[11] = system: HCT-116 colon
[12] = system: HCT-15 colon
[13] = system: HL-60(TB) leukemia
[14] = system: HOP-62 NSCLC
[15] = system: HOP-92 NSCLC
[16] = system: HS 578T breast
[17] = system: HT29 colon
[18] = system: IGROV1 ovarian
[19] = system: K-562 leukemia
[20] = system: KM12 colon
[21] = system: LOX IMVI melanoma
[22] = system: M14 melanoma
[23] = system: MALME-3M melanoma
[24] = system: MCF7 breast
[25] = system: MDA-MB-231 breast
[26] = system: MDA-MB-435
[27] = system: MDA-N
[28] = system: MOLT-4 leukemia
[29] = system: NCI-H226 lung
[30] = system: NCI-H23 lung
[31] = system: NCI-H460 lung
[32] = system: NCI-H522 lung
[33] = system: NCI/ADR-RES ovarian
[34] = system: OVCAR-3 ovarian
[35] = system: OVCAR-4 ovarian
[36] = system: OVCAR-5 ovarian
[37] = system: OVCAR-8 ovarian
[38] = system: PC-3 prostate
[39] = system: RPMI-8226 leukemia
[40] = system: RXF 393 renal
[41] = system: SF-268 CNS
[42] = system: SF-295 CNS
[43] = system: SK-MEL-28 melanoma
[44] = system: SK-MEL-5 melanoma
[45] = system: SK-OV-3 ovarian
[46] = system: SN12C renal
[47] = system: SNB-19 CNS
[48] = system: SNB-75 CNS
[49] = system: SR leukemia
[50] = system: SW-620 colon
[51] = system: T-47D breast
[52] = system: TK-10 renal
[53] = system: U251 CNS
[54] = system: UACC-62 melanoma
[55] = system: UO-31 renal
[56] = system: A498 renal
[57] = system: SF-539 CNS
[58] = system: SK-MEL-2 melanoma
[59] = system: UACC-257 melanoma

NC(CCC(=O)OCc1ccccc1)C(=O)NC(CCC(=O)OCc1ccccc1)C(=O)O (configuration not stated) (H-Glu(OBn)-Glu(OBn)-OH; configuration not given here)
TGI [1]: > 100 µM | TGI [2]: > 100 µM | TGI [3]: > 100 µM | TGI [4]: > 100 µM | TGI [5]: > 100 µM | TGI [6]: > 100 µM | TGI [7]: > 100 µM | TGI [8]: > 100 µM | TGI [9]: > 100 µM | TGI [10]: > 100 µM | TGI [11]: > 100 µM | TGI [12]: > 100 µM | TGI [13]: > 100 µM | TGI [14]: > 100 µM | TGI [15]: > 100 µM | TGI [16]: > 100 µM | TGI [17]: > 100 µM | TGI [18]: > 100 µM | TGI [19]: > 100 µM | TGI [20]: > 100 µM | TGI [21]: > 100 µM | TGI [22]: > 100 µM | TGI [23]: > 100 µM | TGI [24]: > 100 µM | TGI [25]: > 100 µM | TGI [26]: > 100 µM | TGI [27]: > 100 µM | TGI [28]: > 100 µM | TGI [29]: > 100 µM | TGI [30]: > 100 µM | TGI [31]: > 100 µM | TGI [32]: > 100 µM | TGI [33]: > 100 µM | TGI [34]: > 100 µM | TGI [35]: > 100 µM | TGI [36]: > 100 µM | TGI [37]: > 100 µM | TGI [38]: > 100 µM | TGI [39]: > 100 µM | TGI [40]: > 100 µM | TGI [41]: > 100 µM | TGI [42]: > 100 µM | TGI [43]: > 100 µM | TGI [44]: > 100 µM | TGI [45]: > 100 µM | TGI [46]: > 100 µM | TGI [47]: > 100 µM | TGI [48]: > 100 µM | TGI [49]: > 100 µM | TGI [50]: > 100 µM | TGI [51]: > 100 µM | TGI [52]: > 100 µM | TGI [53]: > 100 µM | TGI [54]: > 100 µM | TGI [55]: > 100 µM

CC(C)(CCCCC(C)(C)NCC1COc2ccccc2O1)NCC1COc2ccccc2O1 (configuration not stated)
TGI [1]: > 10 µM | TGI [56]: > 10 µM | TGI [2]: > 10 µM | TGI [3]: > 10 µM | TGI [4]: > 10 µM | TGI [5]: > 10 µM | TGI [6]: > 10 µM | TGI [7]: 4.12 µM | TGI [8]: > 10 µM | TGI [9]: > 10 µM | TGI [10]: 4.73 µM | TGI [11]: > 10 µM | TGI [12]: > 10 µM | TGI [13]: > 10 µM | TGI [14]: > 10 µM | TGI [15]: 7.43 µM | TGI [16]: > 10 µM | TGI [17]: 7.08 µM | TGI [18]: > 10 µM | TGI [19]: > 10 µM | TGI [20]: > 10 µM | TGI [21]: > 10 µM | TGI [22]: 3.4 µM | TGI [23]: 4.65 µM | TGI [24]: > 10 µM | TGI [25]: > 10 µM | TGI [26]: 3.6 µM | TGI [27]: 5.66 µM | TGI [28]: > 10 µM | TGI [29]: > 10 µM | TGI [30]: > 10 µM | TGI [31]: > 10 µM | TGI [32]: > 10 µM | TGI [33]: > 10 µM | TGI [34]: > 10 µM | TGI [35]: > 10 µM | TGI [36]: > 10 µM | TGI [37]: > 10 µM | TGI [38]: > 10 µM | TGI [39]: > 10 µM | TGI [40]: 8.83 µM | TGI [41]: > 10 µM | TGI [42]: > 10 µM | TGI [57]: 3.34 µM | TGI [58]: 6.68 µM | TGI [43]: 3.66 µM | TGI [44]: 2.95 µM | TGI [45]: > 10 µM | TGI [46]: > 10 µM | TGI [47]: > 10 µM | TGI [48]: > 10 µM | TGI [49]: > 10 µM | TGI [50]: > 10 µM | TGI [51]: > 10 µM | TGI [52]: > 10 µM | TGI [53]: > 10 µM | TGI [59]: 4.1 µM | TGI [54]: 9.93 µM

COc1cc(C2S/C(=C/c3ccccc3)C(=O)N2c2ccc([N+](=O)[O-])cc2)cc(OC)c1OC (configuration not stated)
TGI [1]: > 100 µM | TGI [56]: > 100 µM | TGI [2]: > 100 µM | TGI [3]: > 100 µM | TGI [4]: > 100 µM | TGI [5]: > 100 µM | TGI [6]: > 100 µM | TGI [7]: > 100 µM | TGI [8]: > 89.1 µM | TGI [9]: > 100 µM | TGI [10]: > 100 µM | TGI [11]: > 100 µM | TGI [12]: > 100 µM | TGI [13]: > 100 µM | TGI [14]: > 100 µM | TGI [15]: > 100 µM | TGI [16]: > 100 µM | TGI [17]: > 100 µM | TGI [18]: > 83.5 µM | TGI [19]: > 100 µM | TGI [20]: > 100 µM | TGI [21]: > 100 µM | TGI [22]: > 100 µM | TGI [23]: > 100 µM | TGI [24]: > 100 µM | TGI [25]: > 100 µM | TGI [26]: > 100 µM | TGI [27]: > 100 µM | TGI [28]: > 100 µM | TGI [29]: > 100 µM | TGI [30]: > 100 µM | TGI [31]: > 100 µM | TGI [32]: > 100 µM | TGI [33]: > 100 µM | TGI [34]: > 100 µM | TGI [35]: > 100 µM | TGI [36]: > 100 µM | TGI [37]: > 100 µM | TGI [38]: > 100 µM | TGI [39]: > 100 µM | TGI [40]: > 100 µM | TGI [41]: > 100 µM | TGI [42]: > 100 µM | TGI [57]: > 100 µM | TGI [58]: > 100 µM | TGI [43]: > 100 µM | TGI [44]: > 100 µM | TGI [45]: > 100 µM | TGI [46]: > 100 µM | TGI [47]: > 100 µM | TGI [48]: > 100 µM | TGI [49]: > 100 µM | TGI [50]: > 100 µM | TGI [51]: > 100 µM | TGI [52]: > 100 µM | TGI [53]: > 100 µM | TGI [59]: > 100 µM | TGI [54]: > 100 µM | TGI [55]: > 100 µM
